Experimental data as given in ChEMBL document CHEMBL1201861, “Genomics of Drug Sensitity in Cancer screening data, Wellcome Trust Sanger Institute”.

Tests used:
Experiment in all cases: cells
COR-L23 = assay type: functional, cell-based; settings: Homo sapiens
Description: SANGER: Inhibition of human COR-L23 cell growth in a cell viability assay.

CP50-MEL-B = assay type: functional, cell-based; settings: Homo sapiens
Description: SANGER: Inhibition of human CP50-MEL-B cell growth in a cell viability assay.

Ca-Ski = assay type: functional, cell-based; settings: Homo sapiens
Description: SANGER: Inhibition of human Ca-Ski cell growth in a cell viability assay.

CaR-1 = assay type: functional, cell-based; settings: Homo sapiens
Description: SANGER: Inhibition of human CaR-1 cell growth in a cell viability assay.

D-247MG = assay type: functional, cell-based; settings: Homo sapiens
Description: SANGER: Inhibition of human D-247MG cell growth in a cell viability assay.

DOK = assay type: functional, cell-based; settings: Homo sapiens
Description: SANGER: Inhibition of human DOK cell growth in a cell viability assay.

FaDu = assay type: functional, cell-based; settings: Homo sapiens
Description: SANGER: Inhibition of human FADU cell growth in a cell viability assay.

GCT = assay type: functional, cell-based; settings: Homo sapiens
Description: SANGER: Inhibition of human GCT cell growth in a cell viability assay.

Kasumi 1 = assay type: functional, cell-based; settings: Homo sapiens
Description: SANGER: Inhibition of human KASUMI-1 cell growth in a cell viability assay.

KYSE-520 cell line = assay type: functional, cell-based; settings: Homo sapiens
Description: SANGER: Inhibition of human KYSE-520 cell growth in a cell viability assay.

KYSE-70 cell line = assay type: functional, cell-based; settings: Homo sapiens
Description: SANGER: Inhibition of human KYSE-70 cell growth in a cell viability assay.

LK-2 = assay type: functional, cell-based; settings: Homo sapiens
Description: SANGER: Inhibition of human LK-2 cell growth in a cell viability assay.

MCF7 = assay type: functional, cell-based; settings: Homo sapiens
Description: SANGER: Inhibition of human MCF7 cell growth in a cell viability assay.

MDA-MB-157 = assay type: functional, cell-based; settings: Homo sapiens
Description: SANGER: Inhibition of human MDA-MB-157 cell growth in a cell viability assay.

MDA-MB-175-VII = assay type: functional, cell-based; settings: Homo sapiens
MDA-MB-361 = assay type: functional, cell-based; settings: Homo sapiens
MEL-JUSO = assay type: functional, cell-based; settings: Homo sapiens
Description: SANGER: Inhibition of human MEL-JUSO cell growth in a cell viability assay.

MIA PaCa-2 = assay type: functional, cell-based; settings: Homo sapiens
Description: SANGER: Inhibition of human MIA-PaCa-2 cell growth in a cell viability assay.

NCI-H1793 = assay type: functional, cell-based; settings: Homo sapiens
Description: SANGER: Inhibition of human NCI-H1793 cell growth in a cell viability assay.

NCI-H2030 = assay type: functional, cell-based; settings: Homo sapiens
Description: SANGER: Inhibition of human NCI-H2030 cell growth in a cell viability assay.

NCI-H2052 = assay type: functional, cell-based; settings: Homo sapiens
Description: SANGER: Inhibition of human NCI-H2052 cell growth in a cell viability assay.

NCI-H2122 = assay type: functional, cell-based; settings: Homo sapiens
Description: SANGER: Inhibition of human NCI-H2122 cell growth in a cell viability assay.

NCI-N87 = assay type: functional, cell-based; settings: Homo sapiens
Description: SANGER: Inhibition of human NCI-N87 cell growth in a cell viability assay.

NUGC-3 = assay type: functional, cell-based; settings: Homo sapiens
Description: SANGER: Inhibition of human NUGC-3 cell growth in a cell viability assay.

OAW-42 = assay type: functional, cell-based; settings: Homo sapiens
Description: SANGER: Inhibition of human OAW-42 cell growth in a cell viability assay.

OVCAR-5 = assay type: functional, cell-based; settings: Homo sapiens
Description: SANGER: Inhibition of human OVCAR-5 cell growth in a cell viability assay.

PA-1 = assay type: functional, cell-based; settings: Homo sapiens
Description: SANGER: Inhibition of human PA-1 cell growth in a cell viability assay.

PANC-03-27 = assay type: functional, cell-based; settings: Homo sapiens
Description: SANGER: Inhibition of human PANC-03-27 cell growth in a cell viability assay.

RD = assay type: functional, cell-based; settings: Homo sapiens
Description: SANGER: Inhibition of human RD cell growth in a cell viability assay.

RERF-LC-MS = assay type: functional, cell-based; settings: Homo sapiens
Description: SANGER: Inhibition of human RERF-LC-MS cell growth in a cell viability assay.

RPMI-2650 = assay type: functional, cell-based; settings: Homo sapiens
Description: SANGER: Inhibition of human RPMI-2650 cell growth in a cell viability assay.

SF-295 = assay type: functional, cell-based; settings: Homo sapiens
Description: SANGER: Inhibition of human SF295 cell growth in a cell viability assay.

SK-MEL-24 = assay type: functional, cell-based; settings: Homo sapiens
Description: SANGER: Inhibition of human SK-MEL-24 cell growth in a cell viability assay.

SK-MEL-28 = assay type: functional, cell-based; settings: Homo sapiens
Description: SANGER: Inhibition of human SK-MEL-28 cell growth in a cell viability assay.

SKG-IIIa = assay type: functional, cell-based; settings: Homo sapiens
Description: SANGER: Inhibition of human SKG-IIIa cell growth in a cell viability assay.

SW1710 = assay type: functional, cell-based; settings: Homo sapiens
Description: SANGER: Inhibition of human SW1710 cell growth in a cell viability assay.

SW-620 = assay type: functional, cell-based; settings: Homo sapiens
Description: SANGER: Inhibition of human SW620 cell growth in a cell viability assay.

SW626 = assay type: functional, cell-based; settings: Homo sapiens
Description: SANGER: Inhibition of human SW626 cell growth in a cell viability assay.

T84 = assay type: functional, cell-based; settings: Homo sapiens
Description: SANGER: Inhibition of human T84 cell growth in a cell viability assay.

CWR22R = assay type: functional, cell-based; settings: Homo sapiens, 22Rv1
Description: SANGER: Inhibition of human 22RV1 cell growth in a cell viability assay.

5637 = assay type: functional, cell-based; settings: Homo sapiens
Description: SANGER: Inhibition of human 5637 cell growth in a cell viability assay.

769-P = assay type: functional, cell-based; settings: Homo sapiens
Description: SANGER: Inhibition of human 769-P cell growth in a cell viability assay.

8305C = assay type: functional, cell-based; settings: Homo sapiens
Description: SANGER: Inhibition of human 8305C cell growth in a cell viability assay.

8505C = assay type: functional, cell-based; settings: Homo sapiens
Description: SANGER: Inhibition of human 8505C cell growth in a cell viability assay.

A-375 = assay type: functional, cell-based; settings: Homo sapiens
Description: SANGER: Inhibition of human A375 cell growth in a cell viability assay.

BPH-1 = assay type: functional, cell-based; settings: Homo sapiens
Description: SANGER: Inhibition of human BPH-1 cell growth in a cell viability assay.

BXPC-3 = assay type: functional, cell-based; settings: Homo sapiens
Description: SANGER: Inhibition of human BxPC-3 cell growth in a cell viability assay.

C32 = assay type: functional, cell-based; settings: Homo sapiens
Description: SANGER: Inhibition of human C32 cell growth in a cell viability assay.

CAKI-1 = assay type: functional, cell-based; settings: Homo sapiens
Description: SANGER: Inhibition of human CAKI-1 cell growth in a cell viability assay.

CAL-12T = assay type: functional, cell-based, Homo sapiens; settings: Homo sapiens, CAL-12T
Description: SANGER: Inhibition of human CAL-12T cell growth in a cell viability assay.

UMC-11 = assay type: functional, cell-based; settings: Homo sapiens
Description: SANGER: Inhibition of human UMC-11 cell growth in a cell viability assay.

## COc1cc(Nc2c(C#N)cnc3cc(OCCCN4CCN(C)CC4)c(OC)cc23)c(Cl)cc1Cl [BOSUTINIB]
COR-L23
  IC50: > 2000 nM
CP50-MEL-B
  IC50: > 2000 nM
Ca-Ski
  IC50: > 2000 nM
CaR-1
  IC50: > 2000 nM
D-247MG
  IC50: > 2000 nM
DOK
  IC50: 378 nM
FaDu
  IC50: > 2000 nM
GCT
  IC50: > 2000 nM
Kasumi 1
  IC50: 723 nM
KYSE-520 cell line
  IC50: > 2000 nM
KYSE-70 cell line
  IC50: > 2000 nM
LK-2
  IC50: > 2000 nM
MCF7
  IC50: > 2000 nM
MDA-MB-157
  IC50: > 2000 nM
MDA-MB-175-VII
  IC50: > 2000 nM
MDA-MB-361
  IC50: > 2000 nM
MEL-JUSO
  IC50: > 2000 nM
MIA PaCa-2
  IC50: > 2000 nM
NCI-H1793
  IC50: > 2000 nM
NCI-H2030
  IC50: > 2000 nM
NCI-H2052
  IC50: > 2000 nM
NCI-H2122
  IC50: > 2000 nM
NCI-N87
  IC50: > 2000 nM
NUGC-3
  IC50: 1290 nM
OAW-42
  IC50: > 2000 nM
OVCAR-5
  IC50: > 2000 nM
PA-1
  IC50: > 2000 nM
PANC-03-27
  IC50: > 2000 nM
RD
  IC50: > 2000 nM
RERF-LC-MS
  IC50: > 2000 nM
RPMI-2650
  IC50: > 2000 nM
SF-295
  IC50: > 2000 nM
SK-MEL-24
  IC50: > 2000 nM
SK-MEL-28
  IC50: > 2000 nM
SKG-IIIa
  IC50: > 2000 nM
SW1710
  IC50: > 2000 nM
SW-620
  IC50: > 2000 nM
SW626
  IC50: > 2000 nM
T84
  IC50: > 2000 nM
CWR22R
  IC50: > 2000 nM
5637
  IC50: 1140 nM
769-P
  IC50: 1700 nM
8305C
  IC50: > 2000 nM
8505C
  IC50: > 2000 nM
A-375
  IC50: 1520 nM
BPH-1
  IC50: 1450 nM
BXPC-3
  IC50: > 2000 nM
C32
  IC50: > 2000 nM
CAKI-1
  IC50: > 2000 nM
CAL-12T
  IC50: > 2000 nM
UMC-11
  IC50: > 2000 nM

## CC[C@]1(O)C[C@@H]2CN(CCc3c([nH]c4ccccc34)[C@@](C(=O)OC)(c3cc4c(cc3OC)N(C)[C@H]3[C@@](O)(C(=O)OC)[C@H](OC(C)=O)[C@]5(CC)C=CCN6CC[C@]43[C@@H]65)C2)C1 [VINBLASTINE]
COR-L23
  IC50: 3.62 nM
CP50-MEL-B
  IC50: 13.1 nM
Ca-Ski
  IC50: 4.69 nM
CaR-1
  IC50: 45.7 nM
D-247MG
  IC50: 6.98 nM
DOK
  IC50: 4.2 nM
FaDu
  IC50: 20 nM
GCT
  IC50: 4.73 nM
Kasumi 1
  IC50: 8.06 nM
KYSE-520 cell line
  IC50: 47.6 nM
KYSE-70 cell line
  IC50: 48.4 nM
LK-2
  IC50: 7.5 nM
MCF7
  IC50: 31.6 nM
MDA-MB-157
  IC50: 9.06 nM
MDA-MB-175-VII
  IC50: > 100 nM
MDA-MB-361
  IC50: 1.66 nM
MEL-JUSO
  IC50: 17.5 nM
MIA PaCa-2
  IC50: 3.39 nM
NCI-H1793
  IC50: 29.6 nM
NCI-H2030
  IC50: 27.7 nM
NCI-H2052
  IC50: 24.6 nM
NCI-H2122
  IC50: 3.44 nM
NCI-N87
  IC50: 5.67 nM
NUGC-3
  IC50: 3.46 nM
OAW-42
  IC50: > 100 nM
OVCAR-5
  IC50: 13.6 nM
PA-1
  IC50: 8.09 nM
PANC-03-27
  IC50: 5.47 nM
RD
  IC50: 4.17 nM
RERF-LC-MS
  IC50: 15.1 nM
RPMI-2650
  IC50: 26.6 nM
SF-295
  IC50: 36.3 nM
SK-MEL-24
  IC50: 31.5 nM
SK-MEL-28
  IC50: 17 nM
SKG-IIIa
  IC50: 17.2 nM
SW1710
  IC50: 5.61 nM
SW-620
  IC50: 8.84 nM
SW626
  IC50: 23.2 nM
T84
  IC50: > 100 nM
CWR22R
  IC50: 9.82 nM
5637
  IC50: 0.951 nM
769-P
  IC50: 25.6 nM
8305C
  IC50: 3.67 nM
8505C
  IC50: 3.11 nM
A-375
  IC50: 23.5 nM
BPH-1
  IC50: 3.26 nM
BXPC-3
  IC50: 8.01 nM
C32
  IC50: > 100 nM
CAKI-1
  IC50: 24.6 nM
CAL-12T
  IC50: 56 nM
UMC-11
  IC50: 76.2 nM

## CC[C@@]1(O)C(=O)OCc2c1cc1n(c2=O)Cc2cc3ccccc3nc2-1 [CAMPTOTHECIN]
COR-L23
  IC50: 6.85 nM
CP50-MEL-B
  IC50: 72.1 nM
Ca-Ski
  IC50: 4.97 nM
CaR-1
  IC50: 6.43 nM
D-247MG
  IC50: 39.5 nM
DOK
  IC50: 18.9 nM
FaDu
  IC50: 0.539 nM
GCT
  IC50: 5.02 nM
Kasumi 1
  IC50: 4.07 nM
KYSE-520 cell line
  IC50: 82.6 nM
KYSE-70 cell line
  IC50: 92.1 nM
LK-2
  IC50: 35.5 nM
MCF7
  IC50: 6.43 nM
MDA-MB-157
  IC50: 7.57 nM
MDA-MB-175-VII
  IC50: 83 nM
MDA-MB-361
  IC50: 34.4 nM
MEL-JUSO
  IC50: 35.6 nM
MIA PaCa-2
  IC50: 2.76 nM
NCI-H1793
  IC50: 27.2 nM
NCI-H2030
  IC50: 48.5 nM
NCI-H2052
  IC50: 28.3 nM
NCI-H2122
  IC50: 13 nM
NCI-N87
  IC50: 8.74 nM
NUGC-3
  IC50: 3.14 nM
OAW-42
  IC50: 8.99 nM
OVCAR-5
  IC50: 43.3 nM
PA-1
  IC50: 0.981 nM
PANC-03-27
  IC50: 7.1 nM
RD
  IC50: 15.7 nM
RERF-LC-MS
  IC50: 22.9 nM
RPMI-2650
  IC50: 2.22 nM
SF-295
  IC50: 7.91 nM
SK-MEL-24
  IC50: 38.5 nM
SK-MEL-28
  IC50: 17.1 nM
SKG-IIIa
  IC50: 4.58 nM
SW1710
  IC50: 33.6 nM
SW-620
  IC50: 4.08 nM
SW626
  IC50: 76.9 nM
T84
  IC50: > 100 nM
CWR22R
  IC50: 9.31 nM
5637
  IC50: 4.18 nM
769-P
  IC50: 25.3 nM
8305C
  IC50: 94 nM
8505C
  IC50: 3.3 nM
A-375
  IC50: 3.69 nM
BPH-1
  IC50: 2.08 nM
C32
  IC50: 13.4 nM
CAKI-1
  IC50: 5.35 nM
UMC-11
  IC50: > 100 nM
